Structures can show the parent of a compound that is named as a salt.

In one assay the target is T1, protein farnesyltransferase (Rattus norvegicus, UniProt Q02293+Q04631).
T1 construct: Rat brain protein farnesyltransferase activity is measured; from tissue; host or cells: rat brain; purified according to Reiss et al., Cell 62:81-88 (1990), steps one through three
Nature of the assay: in vitro inhibition of protein farnesyltransferase (scintillation proximity assay, biotin-K Ras B fragment). It counts as biochemical. Particulars: at 1 × 10^-5 M. The text has this:
The ability of the compounds of the invention to inhibit protein farnesyltransferase or protein geranylgeranyltransferase can be measured according to the method of Moores, et al., J. Biol. Chem. 266: 14603 (1991) or the method of Vogt, et al., J. Biol. Chem. 270:660-664 (1995). In addition, procedures for determination of the inhibition of farnesylation of the oncogene protein Ras are described by Goldstein, et al., J. Biol. Chem., 266:15575-15578 (1991) and by Singh in U.S. Pat. No. 5,245,061.
In addition, in vitro inhibition of protein farnesyltransferase may be measured by the following procedure. Rat brain protein farnesyltransferase activity is measured using an Amersham Life Science commercial scintillation proximity assay kit and substituting a biotin-K Ras B fragment (biotin-[…]CO2 H), 0.1 mM final concentration, for the biotin-lamin substrate provided by Amersham. The enzyme is purified according to Reiss, Y., et al., Cell, 62: 81-88 (1990), utilizing steps one through three.
The % inhibition of protein farnesyltransferase was determined for representative compounds of the invention.
In general terms: Scintillation proximity formats need no separation of bound from free tracer.
In the case of `CCn1cc(NCc2ccc(C(=O)N[C@@H](CCSC)C(=O)O)c(-c3ccccc3)c2)c(=O)n1CC` [Example 364], at 10 µM the inhibition was 69%.

`CSCC[C@H](NC(=O)c1ccc(CNCCN2CCOCC2)cc1-c1ccccc1)C(=O)O` [Example 365]: at 10 µM the inhibition was 97%.

The assay is the same for the next values; noted with them: at 1 × 10^-6 M.
Consider `CSCC[C@H](NC(=O)c1ccc(N2CC(=O)NNC2=O)cc1-c1ccccc1)C(=O)O` [Example 224], for which the “% inhibition of farnesyltransferase” value was 41%. On the same count and under the same terms, the result for `CSCC[C@H](NC(=O)c1ccc(COCc2cccs2)cc1-c1ccccc1C)C(=O)[O-].[Li+]` [Example 273] reads 96%. The same measure, in the same setting: the same measure for `CSCC[C@H](NC(=O)c1ccc(COCc2ccsc2)cc1-c1ccccc1C)C(=O)[O-].[Li+]` [Example 274]: 94%; for `CSCC[C@H](NC(=O)c1ccc(COCC2CCOC2)cc1-c1ccccc1)C(=O)O` (some centres unmarked) [Example 287]: 24%; for `CSCC[C@H](NC(=O)c1ccc(COCC2CCCO2)cc1-c1ccccc1)C(=O)O` (some centres unmarked) [Example 288]: 22%. Still for that read-out and setting: the same measure for `CCCCON(CCC1CCCCC1)Cc1ccc(C(=O)N[C@@H](CCS(C)(=O)=O)C(=O)O)c(-c2ccccc2C)c1` [Example 298]: 43%; for `CCCCN(C)N(CCC1CCCCC1)Cc1ccc(C(=O)N[C@@H](CCS(C)(=O)=O)C(=O)O)c(-c2ccccc2C)c1` [Example 300]: 22%. As for `CSCC[C@H](NC(=O)c1ccc(CN(C)C(CC2CCCCC2)C(=O)N2CCCCC2)cc1-c1ccccc1C)C(=O)O` (some centres unmarked) [Example 301], the “% inhibition of farnesyltransferase” value is 98%. Same read-out and setting: the same measure for `CSCC[C@H](NC(=O)c1ccc(CNC(C)(C)Cc2ccccc2)cc1-c1ccccc1C)C(=O)O` [Example 307]: 82%. `CSCC[C@H](NC(=O)c1ccc(CNC(C)(C)CC2CCCCC2)cc1-c1ccccc1C)C(=O)O` [Example 308]: the “% inhibition of farnesyltransferase” value turned out to be 62%.

As for `CSCC[C@H](NC(=O)c1ccc(CN(C)C(C)(C)Cc2ccccc2)cc1-c1ccccc1C)C(=O)O` [Example 309], the “% inhibition of farnesyltransferase” value is listed as 98%. With `Cc1ccccc1-c1cc(CNC(C)(C)Cc2ccccc2)ccc1C(=O)N[C@@H](CCS(C)(=O)=O)C(=O)O` [Example 311], the “% inhibition of farnesyltransferase” value is recorded as 97%.

Consider `Cc1ccccc1-c1cc(CN(C)C(C)(C)Cc2ccccc2)ccc1C(=O)N[C@@H](CCS(C)(=O)=O)C(=O)O` [Example 313], for which the “% inhibition of farnesyltransferase” value amounted to 94%. In the case of `Cc1ccccc1-c1cc(CN(C)C(C)(C)CC2CCCCC2)ccc1C(=O)N[C@@H](CCS(C)(=O)=O)C(=O)O` [Example 314], the “% inhibition of farnesyltransferase” value was 97%. Same read-out and setting: the same measure for `CSCC[C@H](NC(=O)c1ccc(CN(C2CC2)C(C)(C)Cc2ccccc2)cc1-c1ccccc1C)C(=O)O` [Example 315]: 93%; for `CSCC[C@H](NC(=O)c1ccc(CN(C2CC2)C(C)(C)CC2CCCCC2)cc1-c1ccccc1C)C(=O)O` [Example 316]: 63%. On the same count and under the same terms, the result for `CSCC[C@H](NC(=O)c1ccc(CN(C(C)C)C(C)(C)Cc2ccccc2)cc1-c1ccccc1C)C(=O)O` [Example 317] reads 54%; that for `CSCC[C@H](NC(=O)c1ccc(CN(C(C)C)C(C)(C)CC2CCCCC2)cc1-c1ccccc1C)C(=O)O` [Example 318], 98%; that for `Cc1ccccc1-c1cc(CN(C2CC2)C(C)(C)Cc2ccccc2)ccc1C(=O)N[C@@H](CCS(C)(=O)=O)C(=O)O` [Example 319], 98%. Still for that read-out and setting: the same measure for `Cc1ccccc1-c1cc(CN(C2CC2)C(C)(C)CC2CCCCC2)ccc1C(=O)N[C@@H](CCS(C)(=O)=O)C(=O)O` [Example 320]: 93%; for `CSCC[C@H](NC(=O)c1ccc(CN(C2CC2)C2(CC3CCCCC3)CC2)cc1-c1ccccc1C)C(=O)O` [Example 324]: 98%; for `CSCC[C@H](NC(=O)c1ccc(CN(C(C)C)C2(Cc3ccccc3)CC2)cc1-c1ccccc1C)C(=O)O` [Example 325]: 99%.

Regarding `CSCC[C@H](NC(=O)c1ccc(CN(C(C)C)C2(CC3CCCCC3)CC2)cc1-c1ccccc1C)C(=O)O` [Example 326], the “% inhibition of farnesyltransferase” value is listed as 91%. For `CSCC[C@H](NC(=O)c1ccc(CN(C2CC2)C2(Cc3ccccc3)CCC2)cc1-c1ccccc1C)C(=O)O` [Example 329], the “% inhibition of farnesyltransferase” value was found to be 98%. Turning to `CSCC[C@H](NC(=O)c1ccc(CN(C2CC2)C2(CC3CCCCC3)CCC2)cc1-c1ccccc1C)C(=O)O` [Example 330], the “% inhibition of farnesyltransferase” value is recorded as 98%. As for `CSCC[C@H](NC(=O)c1ccc(CN(C(C)C)C2(Cc3ccccc3)CCC2)cc1-c1ccccc1C)C(=O)O` [Example 331], the “% inhibition of farnesyltransferase” value worked out at 98%.

With `CSCC[C@H](NC(=O)c1ccc(CN(C(C)C)C2(CC3CCCCC3)CCC2)cc1-c1ccccc1C)C(=O)O` [Example 332], the “% inhibition of farnesyltransferase” value turned out to be 26%. Same read-out and setting: the same measure for `Cc1ccccc1-c1cc(CN(C2CC2)C2(Cc3ccccc3)CCC2)ccc1C(=O)N[C@@H](CCS(C)(=O)=O)C(=O)O` [Example 333]: 99%; for `Cc1ccccc1-c1cc(CN(C2CC2)C2(CC3CCCCC3)CCC2)ccc1C(=O)N[C@@H](CCS(C)(=O)=O)C(=O)O` [Example 334]: 93%. As for `CSCC[C@H](NC(=O)c1ccc(CN(C(C)C)C2(Cc3ccccc3)CCCC2)cc1-c1ccccc1C)C(=O)O` [Example 343], the “% inhibition of farnesyltransferase” value was 72%. The same measure, in the same setting: the same measure for `CSCC[C@H](NC(=O)c1ccc(CN(C(C)C)C2(CC3CCCCC3)CCCC2)cc1-c1ccccc1C)C(=O)O` [Example 344]: 95%; for `Cc1ccccc1-c1cc(CN(C2CC2)C2(Cc3ccccc3)CCCC2)ccc1C(=O)N[C@@H](CCS(C)(=O)=O)C(=O)O` [Example 345]: 91%; for `Cc1ccccc1-c1cc(CN(C2CC2)C2(CC3CCCCC3)CCCC2)ccc1C(=O)N[C@@H](CCS(C)(=O)=O)C(=O)O` [Example 346]: 98%.

Consider `CSCC[C@H](NC(=O)c1ccc(CN2C(=O)OC[C@@H]2CC2CCCCC2)cc1-c1ccccc1C)C(=O)O` [Example 349], for which the “% inhibition of farnesyltransferase” value turned out to be 99%.

Staying with this assay, now noted: at 1 × 10^-6 M; read-out: % inhibition of farnesyltransferase.
With `CSCCC(NC(=O)c1ccc(NC(=O)Cc2cscn2)cc1-c1ccccc1)C(=O)O` (centres unmarked) [Example 162, [4-(thiazo-4-ylmethylcarbonyl)amino-2-phenylbenzoyl]methionine], the inhibition (commonly the change of the read-out against control, counted positive when it falls) at 1 µM was determined as 12%. Turning to `CSCC[C@H](NC(=O)c1ccc(NC(=O)Cc2nccs2)cc1-c1ccccc1)C(=O)O` [Example 163, [4-(thiazol-2-ylmethylcarbonyl)amino-2-phenylbenzoyl]methionine], the inhibition at 1 µM was determined as 18%.

As for `COC(=O)[C@H](CCSC)NC(=O)c1ccc(NC(=O)[C@@H]2CSCN2)cc1-c1ccccc1` [Example 164, [4-((R)-thiazolidin-4-ylcarbonyl)amino-2-phenylbenzoyl]methionine methyl ester hydrochloride], the inhibition at 1 µM is 92%. On the same count and under the same terms, the same measure for `CSCC[C@H](NC(=O)c1ccc(NC(=O)[C@@H]2CSCN2)cc1-c1ccccc1)C(=O)O` [Example 165, [4-((R)-thiazolidin-4-ylcarbonyl)amino-2-phenylbenzoyl]methionine]: 74%; for `CSCC[C@H](NC(=O)c1ccc(NC[C@@H]2CSCN2)cc1-c1ccccc1)C(=O)O` [Example 166, [4-((R)-thiazolidin-4-ylmethyl)amino-2-phenylbenzoyl]methionine hydrochloride]: 97%. As for `CSCC[C@H](NC(=O)c1ccc(NC(=O)C2CCC(=O)N2)cc1-c1ccccc1)C(=O)O` (some centres unmarked) [Example 202, [4-(2-pyrrolidinone-5-ylcarbonylamino)-2-phenylbenzoyl]methionine], the inhibition at 1 µM stood at 31%.

For the compound `CSCCC(NC(=O)c1ccc(NC(=O)c2cncnc2)cc1-c1ccccc1)C(=O)O` (centres unmarked) [Example 219, [4-(5-pyrimidylcarboxyamino)-2-phenylbenzoyl]methionine], the inhibition at 1 µM amounted to 56%. Still for that read-out and setting: the result for `CSCCC(NC(=O)c1ccc(NC(=O)C2CCCNC2)cc1-c1ccccc1)C(=O)O` (centres unmarked) [Example 231, [4-(3-piperidinecarboxyamino)-2-phenylbenzoyl]methionine hydrochloride] reads 50%; that for `CSCC[C@H](NC(=O)c1ccc(NCC2CNCCN2)cc1-c1ccccc1)C(=O)O` (some centres unmarked) [Example 286, [4-(2-piperazinylmethylamino)-2-phenylbenzoyl]methionine], 84%.

Staying with this assay, now noted: read-out: % inhibition of farnesyltransferase.
Take `CSCC[C@H](NC(=O)c1ccc(NC(=O)C2=C(C(F)(F)F)C=CNC2)cc1-c1ccccc1)C(=O)O` [Example 283, [4-(1H-4-trifluoromethyl-1,2-dihydropyrid-3-ylcarbonylamino)-2-phenylbenzoyl]methionine sodium salt]: the inhibition at 1 µM was 98%. As for `CSCC[C@H](NC(=O)c1ccc(CNCc2ccco2)cc1-c1ccccc1)C(=O)O` [Example 302, [4-(2-furylmethylaminomethyl)-2-phenylbenzoyl]methionine lithium salt], the inhibition at 1 µM came to 31%.

Source of the values: patent US6310095A, “Inhibitors of protein isoprenyl transferases” (University of Pittsburgh, priority 1998, dated 2001).
